Assay results reported in BindingDB's records for doi:10.1021/jm030030n (Virginia Commonwealth University, 2003).

Key:
[1] = Binding affinity for rodent 5-hydroxytryptamine 5A receptor
[2] = Binding affinity of compound towards rodent 5-hydroxytryptamine 7 receptor

SMILES	Ki [1]	Ki [2]
CCN(CC)C(=O)[C@@H]1C=C2c3cccc4[nH]c(I)c(c34)C[C@H]2N(C)C1	< 10 nM	
CCCCC(=O)c1ccc(F)cc1 [1-(4-Fluoro-phenyl)-pentan-1-one]		140 nM
Oc1ccc2cccc(N3CCNCC3)c2c1 [8-Piperazin-1-yl-naphthalen-2-ol]	3 nM	
CCN(CC)C(=O)[C@@H]1C=C2c3cccc4[nH]c(Br)c(c34)C[C@H]2N(C)C1 [LSD,2-Bromo]	< 10 nM	
